We go through 25 molecules from the NIST ThermoML archive (doi:10.1016/j.fluid.2018.09.024).

SMILES strings stand for the structures. Numbers after ± are expanded uncertainties.

The nature of this series: activity coefficient (dimensionless); of the first substance listed, at infinite dilution; xn = mol fraction of the nth substance listed. As to conditions: 101.33 kPa, Liquid, Chromatography, x1 = 0.

Take `C1CCOC1` [tetrahydrofuran] + CCCCCCCCCCCC[N+](C)(C)CCOc1ccccc1.O=S(=O)([N-]S(=O)(=O)C(F)(F)F)C(F)(F)F: the activity coefficient reads like this: (318.15 K) 0.364 ± 0.033; (328.15 K) 0.39 ± 0.034; (338.15 K) 0.418 ± 0.035; (348.15 K) 0.446 ± 0.036; (358.15 K) 0.473 ± 0.037; (368.15 K) 0.502 ± 0.038.

In the case of `C1COCCO1` [1,4-dioxane] + CCCCCCCCCCCC[N+](C)(C)CCOc1ccccc1.N#C[N-]C#N, the activity coefficient by setting is: (328.15 K) 0.76 ± 0.05; (338.15 K) 0.79 ± 0.051; (348.15 K) 0.818 ± 0.053; (358.15 K) 0.846 ± 0.054; (368.15 K) 0.871 ± 0.056; (378.15 K) 0.898 ± 0.057.

Regarding `C#CCCCCC` [1-heptyne] + CCCCCCCCCCCC[N+](C)(C)CCOc1ccccc1.N#C[N-]C#N, the activity coefficient is, setting by setting: (328.15 K) 1.93 ± 0.13; (338.15 K) 2.03 ± 0.14; (348.15 K) 2.12 ± 0.14; (358.15 K) 2.21 ± 0.15; (368.15 K) 2.3 ± 0.16; (378.15 K) 2.4 ± 0.16.

Take `C1CCOC1` [tetrahydrofuran] + CCCCCCCCCCCC[N+](C)(C)CCOc1ccccc1.N#C[N-]C#N: the activity coefficient (328.15 K) came out at 0.704 ± 0.047; the activity coefficient (338.15 K) was 0.726 ± 0.048; the activity coefficient (348.15 K) amounted to 0.749 ± 0.049; the activity coefficient (358.15 K) came to 0.77 ± 0.05; the activity coefficient (368.15 K) is 0.791 ± 0.051; the activity coefficient (378.15 K) is 0.81 ± 0.052.

Consider `CC#N` [acetonitrile] + CCCCCCCCCCCC[N+](C)(C)CCOc1ccccc1.N#C[N-]C#N, for which the activity coefficient is, setting by setting: (328.15 K) 0.756 ± 0.05; (338.15 K) 0.766 ± 0.05; (348.15 K) 0.775 ± 0.051; (358.15 K) 0.785 ± 0.051; (368.15 K) 0.793 ± 0.052; (378.15 K) 0.801 ± 0.052.

`Cc1ccccc1C` [1,2-dimethylbenzene] + CCCCCCCCCCCC[N+](C)(C)CCOc1ccccc1.N#C[N-]C#N: the activity coefficient turned out to be 1.23 ± 0.08 (328.15 K); 1.28 ± 0.08 (338.15 K); 1.32 ± 0.09 (348.15 K); 1.36 ± 0.09 (358.15 K); 1.4 ± 0.09 (368.15 K); 1.43 ± 0.09 (378.15 K).

Regarding `C=CCCCCC` [1-heptene] + CCCCCCCCCCCC[N+](C)(C)CCOc1ccccc1.N#C[N-]C#N, the activity coefficient by setting is: (328.15 K) 4.19 ± 0.29; (338.15 K) 4.28 ± 0.29; (348.15 K) 4.36 ± 0.3; (358.15 K) 4.43 ± 0.3; (368.15 K) 4.51 ± 0.31; (378.15 K) 4.59 ± 0.31.

On to `CCCCCCCC` [octane] + CCCCCCCCCCCC[N+](C)(C)CCOc1ccccc1.N#C[N-]C#N, for which the activity coefficient worked out at 6.7 ± 0.46 (328.15 K); 6.8 ± 0.46 (338.15 K); 6.87 ± 0.47 (348.15 K); 6.96 ± 0.47 (358.15 K); 7.07 ± 0.48 (368.15 K); 7.15 ± 0.49 (378.15 K).

Take `CCCC=O` [butanal] + CCCCCCCCCCCC[N+](C)(C)CCOc1ccccc1.O=S(=O)([N-]S(=O)(=O)C(F)(F)F)C(F)(F)F: the activity coefficient reads like this: (318.15 K) 0.711 ± 0.047; (328.15 K) 0.742 ± 0.049; (338.15 K) 0.777 ± 0.051; (348.15 K) 0.81 ± 0.052; (358.15 K) 0.844 ± 0.054; (368.15 K) 0.876 ± 0.056.

`CCC[N+](=O)[O-]` [1-nitropropane] + CCCCCCCCCCCC[N+](C)(C)CCOc1ccccc1.N#C[N-]C#N: the activity coefficient was 0.83 ± 0.053 (328.15 K); 0.85 ± 0.055 (338.15 K); 0.868 ± 0.055 (348.15 K); 0.886 ± 0.056 (358.15 K); 0.903 ± 0.057 (368.15 K); 0.92 ± 0.058 (378.15 K).

On to `C=C(C)c1ccccc1` [(1-methylethenyl)benzene] + CCCCCCCCCCCC[N+](C)(C)CCOc1ccccc1.N#C[N-]C#N, for which the activity coefficient (328.15 K) was 1.11 ± 0.07; the activity coefficient (338.15 K) is 1.18 ± 0.08; the activity coefficient (348.15 K) amounted to 1.25 ± 0.08; the activity coefficient (358.15 K) was 1.32 ± 0.09; the activity coefficient (368.15 K) came out at 1.39 ± 0.09; the activity coefficient (378.15 K) is 1.46 ± 0.1.

As to `CCCCCCCCCC` [decane] + CCCCCCCCCCCC[N+](C)(C)CCOc1ccccc1.N#C[N-]C#N, the activity coefficient (328.15 K) is 9.02 ± 0.62; the activity coefficient (338.15 K) is 9.17 ± 0.63; the activity coefficient (348.15 K) was 9.31 ± 0.64; the activity coefficient (358.15 K) was 9.45 ± 0.64; the activity coefficient (368.15 K) came out at 9.6 ± 0.65; the activity coefficient (378.15 K) turned out to be 9.75 ± 0.67.

On to `C=CCCCCCCCC` [1-decene] + CCCCCCCCCCCC[N+](C)(C)CCOc1ccccc1.O=S(=O)([N-]S(=O)(=O)C(F)(F)F)C(F)(F)F, for which the activity coefficient came to 4.02 ± 0.27 (318.15 K); 4.15 ± 0.28 (328.15 K); 4.27 ± 0.29 (338.15 K); 4.4 ± 0.3 (348.15 K); 4.52 ± 0.31 (358.15 K); 4.63 ± 0.32 (368.15 K).

For the molecule `C#CCCCC` [1-hexyne] + CCCCCCCCCCCC[N+](C)(C)CCOc1ccccc1.N#C[N-]C#N, the activity coefficient by setting is: (328.15 K) 1.66 ± 0.11; (338.15 K) 1.74 ± 0.12; (348.15 K) 1.82 ± 0.12; (358.15 K) 1.88 ± 0.13; (368.15 K) 1.95 ± 0.13; (378.15 K) 2.02 ± 0.14.

With `CCCCCCC` [heptane] + CCCCCCCCCCCC[N+](C)(C)CCOc1ccccc1.N#C[N-]C#N, the activity coefficient is, setting by setting: (328.15 K) 5.99 ± 0.41; (338.15 K) 6.08 ± 0.41; (348.15 K) 6.16 ± 0.42; (358.15 K) 6.24 ± 0.43; (368.15 K) 6.33 ± 0.43; (378.15 K) 6.41 ± 0.44.

For `C=COC(C)=O` [vinyl acetate] + CCCCCCCCCCCC[N+](C)(C)CCOc1ccccc1.O=S(=O)([N-]S(=O)(=O)C(F)(F)F)C(F)(F)F, the activity coefficient by setting is: (318.15 K) 0.393 ± 0.034; (328.15 K) 0.414 ± 0.034; (338.15 K) 0.434 ± 0.035; (348.15 K) 0.453 ± 0.036; (358.15 K) 0.473 ± 0.037; (368.15 K) 0.493 ± 0.038.

As to `CO` [methanol] + CCCCCCCCCCCC[N+](C)(C)CCOc1ccccc1.O=S(=O)([N-]S(=O)(=O)C(F)(F)F)C(F)(F)F, the activity coefficient was 1.1 ± 0.07 (318.15 K); 1.06 ± 0.07 (328.15 K); 1.04 ± 0.07 (338.15 K); 1.01 ± 0.06 (348.15 K); 0.982 ± 0.062 (358.15 K); 0.964 ± 0.061 (368.15 K).

With `CCO` [ethanol] + CCCCCCCCCCCC[N+](C)(C)CCOc1ccccc1.O=S(=O)([N-]S(=O)(=O)C(F)(F)F)C(F)(F)F, the activity coefficient is 1.24 ± 0.08 (318.15 K); 1.2 ± 0.08 (328.15 K); 1.16 ± 0.07 (338.15 K); 1.12 ± 0.07 (348.15 K); 1.09 ± 0.07 (358.15 K); 1.06 ± 0.07 (368.15 K).

`CC(C)CC(C)(C)C` [2,2,4-trimethylpentane] + CCCCCCCCCCCC[N+](C)(C)CCOc1ccccc1.O=S(=O)([N-]S(=O)(=O)C(F)(F)F)C(F)(F)F: the activity coefficient reads like this: (318.15 K) 3.66 ± 0.25; (328.15 K) 3.72 ± 0.25; (338.15 K) 3.77 ± 0.26; (348.15 K) 3.82 ± 0.26; (358.15 K) 3.86 ± 0.26; (368.15 K) 3.9 ± 0.27.

For `Cc1ccccc1C` [1,2-dimethylbenzene] + CCCCCCCCCCCC[N+](C)(C)CCOc1ccccc1.O=S(=O)([N-]S(=O)(=O)C(F)(F)F)C(F)(F)F, the activity coefficient is, setting by setting: (318.15 K) 0.783 ± 0.051; (328.15 K) 0.83 ± 0.053; (338.15 K) 0.874 ± 0.056; (348.15 K) 0.922 ± 0.058; (358.15 K) 0.968 ± 0.061; (368.15 K) 1.01 ± 0.06.

Regarding `CCCCCO` [pentan-1-ol] + CCCCCCCCCCCC[N+](C)(C)CCOc1ccccc1.O=S(=O)([N-]S(=O)(=O)C(F)(F)F)C(F)(F)F, the activity coefficient runs as follows: (318.15 K) 1.34 ± 0.09; (328.15 K) 1.31 ± 0.09; (338.15 K) 1.27 ± 0.08; (348.15 K) 1.24 ± 0.08; (358.15 K) 1.22 ± 0.08; (368.15 K) 1.19 ± 0.08.

Take `CCCC(=O)OC` [methyl butanoate] + CCCCCCCCCCCC[N+](C)(C)CCOc1ccccc1.O=S(=O)([N-]S(=O)(=O)C(F)(F)F)C(F)(F)F: the activity coefficient runs as follows: (318.15 K) 0.565 ± 0.041; (328.15 K) 0.601 ± 0.042; (338.15 K) 0.636 ± 0.044; (348.15 K) 0.672 ± 0.046; (358.15 K) 0.706 ± 0.047; (368.15 K) 0.741 ± 0.049.

In the case of `CC(C)CO` [2-methyl-1-propanol] + CCCCCCCCCCCC[N+](C)(C)CCOc1ccccc1.O=S(=O)([N-]S(=O)(=O)C(F)(F)F)C(F)(F)F, the activity coefficient (318.15 K) turned out to be 1.4 ± 0.09; the activity coefficient (328.15 K) came out at 1.33 ± 0.09; the activity coefficient (338.15 K) was 1.26 ± 0.08; the activity coefficient (348.15 K) was 1.21 ± 0.08; the activity coefficient (358.15 K) was determined as 1.16 ± 0.07; the activity coefficient (368.15 K) is 1.12 ± 0.07.

As to `CCC(=O)OC` [methyl propanoate] + CCCCCCCCCCCC[N+](C)(C)CCOc1ccccc1.N#C[N-]C#N, the activity coefficient (328.15 K) was determined as 1.13 ± 0.07; the activity coefficient (338.15 K) stood at 1.16 ± 0.07; the activity coefficient (348.15 K) turned out to be 1.19 ± 0.08; the activity coefficient (358.15 K) was 1.22 ± 0.08; the activity coefficient (368.15 K) was 1.25 ± 0.08; the activity coefficient (378.15 K) was found to be 1.28 ± 0.08.

As to `COC(C)=O` [methyl ethanoate] + CCCCCCCCCCCC[N+](C)(C)CCOc1ccccc1.N#C[N-]C#N, the activity coefficient came to 1.03 ± 0.06 (328.15 K); 1.06 ± 0.07 (338.15 K); 1.09 ± 0.07 (348.15 K); 1.12 ± 0.07 (358.15 K); 1.14 ± 0.07 (368.15 K); 1.17 ± 0.07 (378.15 K).
